Among the data in patent publication US12215093B2, “Bicyclic carboxamides and methods of use thereof” (Tempest Therapeutics, Inc., priority 2018, dated 2025) are IC50 values, retold here.

The target of test [1] is T1, EP4 (Homo sapiens, UniProt P35408).
T1 construct: host or cells: stably transfected HEK293 cells co-expressing a promiscuous G protein and a clytin variant
Nature of the test: Functional calcium flux assay, EP4. In kind it is cell-based. Particulars: stably transfected HEK293 cells; PGE2 10 nM; read-out: EP4 Ca2+-flux assay IC50. Background: Calcium flux is commonly read through the fluorescence of an indicator in the cells.

The target in test [2] is EP2 (Homo sapiens, UniProt P43116).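 Note: functional calcium flux assay in stably transfected HEK293 cells expressing EP2 coupled via a promiscuous G protein, clytin luminescence read as area under the curve, 30 min compound preincubation.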
Sequence of EP2 (P43116 whole entry): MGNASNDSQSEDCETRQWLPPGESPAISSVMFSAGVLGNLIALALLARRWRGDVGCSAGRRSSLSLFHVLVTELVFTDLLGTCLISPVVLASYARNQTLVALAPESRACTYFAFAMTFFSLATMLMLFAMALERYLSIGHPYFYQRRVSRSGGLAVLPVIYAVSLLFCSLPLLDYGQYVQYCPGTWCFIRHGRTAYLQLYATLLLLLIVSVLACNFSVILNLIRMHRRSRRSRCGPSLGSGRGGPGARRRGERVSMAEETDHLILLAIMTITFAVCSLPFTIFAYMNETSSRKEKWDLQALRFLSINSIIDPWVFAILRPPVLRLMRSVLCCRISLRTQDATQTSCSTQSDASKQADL
Experimental: Each receptor subtype has an additional promiscuous G protein added in order to couple the aforementioned receptor to the calcium signaling pathway. The parental cell line used also expresses a novel variant of clytin, a calcium-activated photo-protein, to enable sensitive luminescent detection. Briefly, cells were plated at 50,000 cells-per-well in black, clear bottom 96-well plates. The plated cells were allowed to sit at room temperature for 30 min prior to transferring to a humidified, 37° C., 5% CO2 incubator for 18 to 24 h. Assay buffer (HBSS with 20 mM HEPES) and loading buffer (assay buffer plus 10 μM coelenterazine) were prepared on the day of the assay. Assays were performed by aspirating media from the assay plate and washing once with assay buffer, then replacing with loading buffer and allowing the cells to incubate for 1.5 h at room temperature. Compounds were prepared in assay buffer at a 3× final concentration in non-binding plates. Compounds were added to the cell plates and incubated for 30 min at room temperature. The prostanoid receptor ligand PGE2 was prepared at a 4× dilution ratio for a final concentration of 10 nM. Plates were run on a Flexstation™ using a 100 ms integration luminescence protocol for a total of 60 sec with ligand addition at 15 sec. Data were obtained from relative light units as measured by area under the curve.

T1 sequence (P35408 whole entry): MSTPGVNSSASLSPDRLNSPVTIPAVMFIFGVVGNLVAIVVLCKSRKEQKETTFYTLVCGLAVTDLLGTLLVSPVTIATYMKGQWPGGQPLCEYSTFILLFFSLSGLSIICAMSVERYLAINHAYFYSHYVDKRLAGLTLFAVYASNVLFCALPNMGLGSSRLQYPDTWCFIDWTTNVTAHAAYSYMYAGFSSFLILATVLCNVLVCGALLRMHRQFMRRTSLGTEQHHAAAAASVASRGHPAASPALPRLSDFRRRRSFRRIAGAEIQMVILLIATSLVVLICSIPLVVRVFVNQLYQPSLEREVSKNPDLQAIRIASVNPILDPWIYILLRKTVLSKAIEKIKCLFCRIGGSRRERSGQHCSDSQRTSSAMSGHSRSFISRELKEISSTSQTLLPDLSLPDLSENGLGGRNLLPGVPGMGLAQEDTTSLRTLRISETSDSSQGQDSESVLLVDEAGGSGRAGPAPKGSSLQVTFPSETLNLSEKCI

A word on the IC50: it is the midpoint of a concentration-inhibition curve. `CNC(=O)c1ccc(-c2ccc(Cn3ccc4c(F)ccc(C(=O)NC5CC6(C5)CC(C(=O)O)C6)c43)cc2)cn1` (stereo not drawn) [Example 63, (Sa)-6-(4-fluoro-1-(4-(6-(methylcarbamoyl)pyridin-3-yl)benzyl)-1H-indole-7-carboxamido)spiro[3.3]heptane-2-carboxylic acid]: the IC50 is less than 1 nM in test [1] and 90 nM in test [2].

Take `COc1cc(C#N)cc(-c2ccc(C(C)n3ncc4cccc(C(=O)NC5CC6(C5)CC(C(=O)O)C6)c43)cc2)c1` (racemic) [Example 114, (Sa)-6-(1-((racemic)-1-(3′-cyano-5′-methoxy-[1,1′-biphenyl]-4-yl)-ethyl)-1H-indazole-7-carboxamido)spiro[3.3]heptane-2-carboxylic acid]: the IC50 in test [1] turned out to be 5.5 nM; in test [2], 57 nM.

Take `COc1cc(-c2ccc(Cn3ccc4c(F)ccc(C(=O)NC5CC6(C5)CC(C(=O)O)C6)c43)cc2)ccc1F` (stereo not drawn) [Example 46, (Sa)-6-(4-fluoro-1-((4’-fluoro-3’-methoxy-[1,1′-biphenyl]-4-yl)methyl)-1H-indole-7-carboxamido)spiro[3.3]heptane-2-carboxylic acid]: the values for the IC50 in test [1] and in test [2] were less than 1 nM and 88 nM, respectively.

`COc1ncc(-c2ccc(C(C)n3ccc4c(F)ccc(C(=O)NC5CC6(C5)CC(C(=O)O)C6)c43)cc2)cc1Cl` (racemic) [Example 120, (Sa)-6-(1-((racemic)-1-(4-(5-chloro-6-methoxypyridin-3-yl)phenyl)-ethyl)-4-fluoro-1H-indole-7-carboxamido)spiro[3.3]heptane-2-carboxylic acid]: the values for the IC50 in test [1] and in test [2] were 11 nM and less than 25 nM, respectively.

With `CNC(=O)c1cc(-c2ccc(Cn3ccc4c(F)ccc(C(=O)NC5CC6(C5)CC(C(=O)O)C6)c43)cc2)ccn1` (stereo not drawn) [Example 60, (Sa)-6-(4-fluoro-1-(4-(2-(methylcarbamoyl)pyridin-4-yl)benzyl)-1H-indole-7-carboxamido)spiro[3.3]heptane-2-carboxylic acid], the IC50 in test [1] is less than 1 nM; in test [2] it was 40 nM.

Turning to `CCOc1cc(-c2ccc(Cn3ccc4c(OC)ncc(C(=O)NC5CC6(C5)CC(C(=O)O)C6)c43)cc2)ccn1` (stereo not drawn) [Example 89, (Sa)-6-(1-(4-(2-ethoxypyridin-4-yl)benzyl)-4-methoxy-1H-pyrrolo[3,2-c]pyridine-7-carboxamido)spiro[3.3]heptane-2-carboxylic acid], the IC50 is 1.3 nM in test [1] and 97 nM in test [2].

`COc1c(Cl)cc(C(=O)NC2CC3(CC(CC(=O)O)C3)C2)c2c1cnn2Cc1ccc(-c2ccccc2)cc1` (stereo not drawn) [Example 171, (Ra)-2-(6-(1-([1,1′-Biphenyl]-4-ylmethyl)-5-chloro-4-methoxy-1H-indazole-7-carboxamido)spiro[3.3]heptan-2-yl)acetic acid]: the IC50 was 1.4 nM in test [1] and less than 25 nM in test [2].

As for `O=C(O)CC1CC2(C1)CC(NC(=O)c1ccc(OC(F)F)c3cnn(Cc4ccc(-c5ccccc5)cc4)c13)C2` (stereo not drawn) [Example 162, (Ra)-2-(6-(1-([1,1′-Biphenyl]-4-ylmethyl)-4-(difluoromethoxy)-1H-indazole-7-carboxamido)spiro[3.3]heptan-2-yl)acetic acid], the IC50 stood at 1.2 nM in test [1] and 52 nM in test [2].

Turning to `COc1cc(-c2ccc(Cn3ncc4cc(Cl)cc(C(=O)NC5CC6(C5)CC(C(=O)O)C6)c43)c(F)c2)ccn1` (stereo not drawn) [Example 156, (Sa)-6-(5-Chloro-1-(2-fluoro-4-(2-methoxypyridin-4-yl)benzyl)-1H-indazole-7-carboxamido)spiro[3.3]heptane-2-carboxylic acid], the IC50 was less than 1 nM in test [1] and less than 25 nM in test [2].

For `O=C(O)CC1CC2(C1)CC(NC(=O)c1cc(OC(F)F)cc3cnn(Cc4ccc(-c5ccccc5)cc4)c13)C2` (stereo not drawn) [Example 165, (Ra)-2-(6-(1-([1,1′-Biphenyl]-4-ylmethyl)-5-(difluoromethoxy)-1H-indazole-7-carboxamido)spiro[3.3]heptan-2-yl)acetic acid], the IC50 in test [1] was 1 nM; in test [2], less than 25 nM.

`O=C(NC1CC2(C1)CC(C(=O)O)C2)c1ccc(Cl)c2cnn(Cc3ccc(C4=CCCC4)c(F)c3)c12` (stereo not drawn) [Example 82, (Sa)-6-(4-chloro-1-(4-(cyclopent-1-en-1-yl)-3-fluorobenzyl)-1H-indazole-7-carboxamido)spiro[3.3]heptane-2-carboxylic acid]: the IC50 in test [1] was less than 1 nM; in test [2], less than 25 nM.

As to `O=C(NC1CC2(C1)CC(C(=O)O)C2)c1ccc(Cl)c2cnn(Cc3ccc(OC(F)(F)F)cc3)c12` (stereo not drawn) [Example 95, (Sa)-6-(4-chloro-1-(4-(trifluoromethoxy)benzyl)-1H-indazole-7-carboxamido)spiro[3.3]heptane-2-carboxylic acid], the IC50 in test [1] came out at 9 nM; in test [2], 83 nM.

On to `N#Cc1cccc(-c2ccc(Cn3ncc4c(Cl)ccc(C(=O)NC5CC6(C5)CC(C(=O)O)C6)c43)cc2)c1` (stereo not drawn) [Example 80, (Sa)-6-(4-chloro-1-((3′-cyano-[1,1′-biphenyl]-4-yl)methyl)-1H-indazole-7-carboxamido)spiro[3.3]heptane-2-carboxylic acid], for which the IC50 turned out to be 1.1 nM in test [1] and 55 nM in test [2].

Regarding `N#Cc1cccc(-c2ccc(Cn3ccc4c(F)ccc(C(=O)NC5CC6(C5)CC(C(=O)O)C6)c43)cc2)c1` (stereo not drawn) [Example 55, (Sa)-6-(1-((3’-cyano-[1,1′-biphenyl]-4-yl)methyl)-4-fluoro-1H-indole-7-carboxamido)spiro[3.3]heptane-2-carboxylic acid], the results for the IC50 in test [1] and in test [2] were less than 1 nM and 46 nM, respectively.

As for `O=C(NC1CC2(C1)CC(C(=O)O)C2)c1ccc(F)c2ccn(Cc3ccc4cc(F)ccc4c3)c12` (stereo not drawn) [Example 37, (Sa)-6-(4-fluoro-1-((6-fluoronaphthalen-2-yl)methyl)-1H-indole-7-carboxamido)spiro[3.3]heptane-2-carboxylic acid], the IC50 was less than 1 nM in test [1] and 70 nM in test [2].

`CC(c1ccc(-c2ccccc2)cc1)n1ccc2c(F)ccc(C(=O)NC3CC4(C3)CC(C(=O)O)C4)c21` (single isomer, unassigned) [Example 127, (Sa)-6-(1-((R) or (S)-1-([1,1′-biphenyl]-4-yl)-ethyl)-4-fluoro-1H-indole-7-carboxamido)spiro[3.3]heptane-2-carboxylic acid]: the IC50 in test [1] was 1.2 nM; in test [2], less than 25 nM.

On to `COc1ccc(-c2ccc(Cn3ccc4c(F)ccc(C(=O)NC5CC6(C5)CC(C(=O)O)C6)c43)cc2)cc1F` (stereo not drawn) [Example 47, (Sa)-6-(4-fluoro-1-((3’-fluoro-4’-methoxy-[1,1′-biphenyl]-4-yl)methyl)-1H-indole-7-carboxamido)spiro[3.3]heptane-2-carboxylic acid], for which the IC50 in test [1] is less than 1 nM; in test [2], 79 nM.

`COc1cccc(-c2ccc(C(C)n3ncc4cccc(C(=O)NC5CC6(C5)CC(C(=O)O)C6)c43)cc2)c1` (racemic) [Example 113, (Sa)-6-(1-((racemic)-1-(3′-methoxy-[1,1′-bipheny]-4-yl)-ethyl)-1H-indazole-7-carboxamido)spiro[3.3]heptane-2-carboxylic acid]: the IC50 in test [1] was 1.3 nM; in test [2], less than 25 nM.

As to `O=C(NC1CC2(C1)CC(C(=O)O)C2)c1ccc(Cl)c2cnn(Cc3ccc(C4=CCCCC4)c(F)c3)c12` (stereo not drawn) [Example 81, (Sa)-6-(4-chloro-1-((2-fluoro-2′3′4′5′-tetrahydro-[1,1’-biphenyl]-4-yl)methyl)-1H-indazole-7-carboxamido)spiro[3.3]heptane-2-carboxylic acid], the IC50 is less than 1 nM in test [1] and less than 25 nM in test [2].

For the molecule `COc1cccc(-c2ccc(C(C)n3ccc4c(F)ccc(C(=O)NC5CC6(C5)CC(C(=O)O)C6)c43)cc2)c1` (single isomer, unassigned) [Example 128, (Sa)-6-(4-fluoro-1-((R) or (S)-1-(3′-methoxy-[1,1′-biphenyl]-4-yl)-ethyl)-1H-indole-7-carboxamido)spiro[3.3]heptane-2-carboxylic acid], the IC50 was 1.9 nM in test [1] and less than 25 nM in test [2].

Take `CC(c1ccc(N2C[C@H]3C[C@H]3C2)cc1)n1ncc2c(Cl)ccc(C(=O)NC3CC4(C3)CC(C(=O)O)C4)c21` (mixture of isomers) [Example 77, (Sa)-6-(1-((racemic)-1-(4-((1R,5S)-3-azabicyclo[3.1.0]hexan-3-yl)phenyl)ethyl)-4-chloro-1H-indazole-7-carboxamido)spiro[3.3]heptane-2-carboxylic acid]: the IC50 is less than 1 nM in test [1] and 71 nM in test [2].

As to `O=C(NC1CC2(C1)CC(C(=O)O)C2)c1ccc(Cl)c2ccn(Cc3ccc(-c4ccccc4)cc3)c12` (stereo not drawn) [Example 68, (Sa)-6-(1-([1,1′-biphenyl]-4-ylmethyl)-4-chloro-1H-indole-7-carboxamido)spiro[3.3]heptane-2-carboxylic acid], the values for the IC50 in test [1] and in test [2] were less than 1 nM and less than 25 nM, respectively.

For `CCOc1cc(-c2ccc(C(C)n3ncc4c(Cl)ccc(C(=O)NC5CC6(C5)CC(C(=O)O)C6)c43)cc2)ccn1` (single isomer, unassigned) [Example 131, (Sa)-6-(4-chloro-1-((R) or (S)-1-(4-(2-ethoxypyridin-4-yl)phenyl)-ethyl)-1H-indazole-7-carboxamido)spiro[3.3]heptane-2-carboxylic acid], the IC50 in test [1] was less than 1 nM; in test [2], less than 25 nM.

Turning to `O=C(NC1CC2(C1)CC(C(=O)O)C2)c1ccc(Cl)c2ccn(Cc3ccc(-c4ccncc4)cc3)c12` (stereo not drawn) [Example 67, (Sa)-6-(4-Chloro-1-(4-(pyridin-4-yl)benzyl)-1H-indole-7-carboxamido)spiro[3.3]heptane-2-carboxylic acid], the IC50 in test [1] was 6.6 nM.

Regarding `N#Cc1ccc(-c2ccc(Cn3ncc4c(Cl)ccc(C(=O)NC5CC6(CC(CC(=O)O)C6)C5)c43)cc2)cc1` (stereo not drawn) [Example 145, (Ra)-2-(6-(4-Chloro-1-((4′-cyano-[1,1′-biphenyl]-4-yl)methyl)-1H-indazole-7-carboxamido)spiro[3.3]heptan-2-yl)acetic acid], the IC50 in test [1] was less than 1 nM.
